{"source": "patent US4594238A", "about": "(Regents of University of Minnesota, priority 1984, dated 1986)", "key": {"[1]": {"conditions": "cited from earlier work"}, "[2]": {"conditions": "rats; cited from earlier work"}, "[3]": {"assay": "Urinary excretion of free and conjugated DDTC", "format": "in vivo, rats", "conditions": "rat, urine, ip, 500 mg/kg, NaDDTC 500 mg/kg ip", "text": "Intravenous administration was explored in an attempt to deliver larger quantities of free DDTC anion to the likely site of toxicity in the renal tubule; urinary excretion of DDTC was monitored as a means of estimating changes in tubular levels of free DDTC. The standard assay for DDTC anion utilizes a spectrophotometric determination following reaction with cupric ion to form the colored Cu(DDTC)2 complex. Unfortunately, the affinity of cupric ion for sulfur ligands is such that this metal ion will catalyze the decomposition of the DDTC glucuronide and therefore will not discriminate between free and conjugated DDTC. Ferric ion does react selectively with the free ligand, thereby providing a convenient assay for both free and total DDTC in urine.\nExcretion of free and conjugated NaDDTC in the urine of rats was measured as follows. NaDDTC was administered in selected doses via intraperitoneal or intravenous injection. Rats were then placed in metabolic cages and urine was collected and analyzed at 30 minute intervals. Urine samples (0.1-5.0 ml) were added to 2 ml of a solution containing ferric nitrate (20 mM) and sodium citrate (200 mM). The dark Fe (DDTC)3 complex was extracted into chloroform (4 ml) by vortexing for 5 minutes. The mixture was chilled, centrifuged for 1 minute, and the chloroform layer separated. To this chloroform solution was added saturated aqueous cupric sulfate (2 ml), and the mixture was vortexed for 5 minutes, chilled, and centrifuged for 1 minute. The chloroform solution was separated and the Cu(DDTC)2absorbance measured at 435 nm. Free DDTC was determined by comparison of absorbance to a standard curve. Total DDTC was determined by addition of 0. 05-1.0 ml of urine to 3 ml of saturated cupric sulfate followed by incubation at 45° for 30 minutes. The resulting Cu(DDTC)2 complex was extracted into chloroform and analyzed as described above. DDTC-glucuronide excretion was determined by subtraction of free from total DDTC."}, "[4]": {"conditions": "after DDP; cited from earlier work"}, "[5]": {"assay": "Platinum excretion kinetics / platinum accumulation after DDP", "format": "in vivo", "conditions": "four rats", "description": "Platinum excretion kinetics were measured in four animals by measuring urinary platinum levels every 30 minutes for 4 hours and then every 2 hours for an additional 12 hours. Urinary platinum concentration declined to <10% of maximal concentration within 1.5 hours and >95% of the platinum excreted by the kidneys had appeared in the urine by this time."}, "Rat mammary tumor 13762": {"system": "Rat mammary tumor 13762", "assay": "Comparative tumor response to DDP with and without NaDDTC rescue, Example 2", "format": "in vivo, Female F344 (Fischer) rats", "description": "Female F344 (Fischer) rates, initial weight 100-150 g, were obtained from the Charles River Breeding Laboratory, Wilmington, MA. They were housed in methacrylate cages and given Purina rat chow and water ad libitum for at least one week. Lean weight of the rats were 150 g at the onset of experiments unless otherwise noted.\nMammary Tumor 13762 was obtained in the form of an implanted tumor in a female F344 rat. All intravenous injections were carried out under brief ether anesthesia.\nTumor inoculation was carried out as follows: two rats bearing tumors having a mean diameter of 2.5-3.5 cm were sacrificed using ether anesthesia. The tumors were excised immediately, finely minced, combined, and resuspended in 20-40 ml of normal saline. This suspension was filtered through a gauze pad to remove coarse pieces of tissue and the resulting suspension inoculated subcutaneously (0.2-0.5 ml/injection) into the left flank of each rat."}, "[6]": {"conditions": "mannitol diuresis coupled with intravenous prehydration, dogs; cited from earlier work"}, "[7]": {"conditions": "mannitol diuresis coupled with intravenous prehydration, humans; cited from earlier work"}}, "note": "Like-named read-outs stand apart in the source and are kept apart here.", "data": [{"smiles": "CCN(CC)C(=S)[S][Na]", "values": [{"measurement": "Solubility in alcohol", "setting": "[1]; alcohol", "result": "also soluble in alcohol"}, {"measurement": "Solubility in water", "setting": "[1]; water", "result": "highly soluble in water, e.g. in molar quantities"}, {"measurement": "LD50", "setting": "[2]", "result": "at least 1,500 mg/kg"}, {"measurement": "dose excreted at 2 h", "setting": "[3]; within 2 hours, read-out: Free ligand in urine, of the initial dose", "result": "< 0.1", "unit": "%"}, {"measurement": "dose excreted at 2 h", "setting": "[3]; read-out: Total DDTC excreted by the kidneys within 2 hours, of the dose given", "result": "18 to 20", "unit": "%"}]}, {"smiles": "N.N.[Cl][Pt][Cl]", "note": "[DDP, cis-dichlorodiammineplatinum(II), reference compound]", "values": [{"measurement": "Time of maximal platinum accumulation (renal tubule)", "setting": "[4]", "result": "30 to 60", "unit": "min"}, {"measurement": "Fraction of kidney-excreted platinum in the urine by […]", "setting": "[5]", "result": "> 95", "unit": "%"}, {"measurement": "Urinary platinum concentration within […], of maximal concentration", "setting": "[5]", "result": "< 10", "unit": "%"}, {"measurement": "Other (non-relapsed) rats through day 50", "setting": "Rat mammary tumor 13762; DDP 2 mg/kg i.v., control, n=8", "result": "essentially free of tumor through day 50"}, {"measurement": "Rats with relapse between days 25 and 30", "setting": "Rat mammary tumor 13762; DDP 2 mg/kg i.v., control, n=8", "result": "2/8"}, {"measurement": "Rats bearing tumors at day 24", "setting": "Rat mammary tumor 13762; DDP 2 mg/kg without rescue", "result": "6/8"}, {"measurement": "Tumor-free rats at day 24", "setting": "Rat mammary tumor 13762; DDP 2 mg/kg without rescue", "result": "2/8"}, {"measurement": "Mean tumor diameter at day 30", "setting": "Rat mammary tumor 13762; DDP 2 mg/kg without rescue, six rats", "result": 2.4, "unit": "cm"}, {"measurement": "Mean minimum tumor diameter", "setting": "Rat mammary tumor 13762; DDP 2 mg/kg without rescue, six tumor-bearing rats, day 24", "result": 1.6, "unit": "cm"}, {"measurement": "Tumor-free rats by day 28", "setting": "Rat mammary tumor 13762; DDP 8 mg/kg, unrescued", "result": "3/8"}, {"measurement": "Animals with spontaneous relapse at the original site", "setting": "Rat mammary tumor 13762; after DDP", "result": "25-75%"}, {"measurement": "Time of spontaneous relapse after DDP administration", "setting": "Rat mammary tumor 13762; rat, in vivo", "result": "approximately 15 days"}]}, {"smiles": "OC[C@@H](O)[C@@H](O)[C@H](O)[C@H](O)CO", "note": "[mannitol]", "values": [{"measurement": "Amelioration of acute platinum toxicity", "setting": "[6]", "result": "ameliorate acute toxicity"}, {"measurement": "Amelioration of acute platinum toxicity", "setting": "[7]", "result": "ameliorate acute toxicity"}]}]}
